From ChEMBL document CHEMBL5316320, “Discovery of Novel Indazole Chemotypes as Isoform-Selective JNK3 Inhibitors for the Treatment of Parkinson's Disease” (J Med Chem, 2023) come the findings set out here.

Usually IC50 stands for the concentration at which inhibition is half-maximal.

A value given as a limit tells only on which side of the number the result lay.

Experiment [1] deals with T1, Mitogen-activated protein kinase 8 (Homo sapiens, UniProt P45983).
For experiment [2], the target named is Mitogen-activated protein kinase 9 (Homo sapiens, UniProt P45984). Nature of the experiment: Inhibition of JNK2 (unknown origin) by kinase profiling assay.
Sequence of Mitogen-activated protein kinase 9 (P45984 whole entry): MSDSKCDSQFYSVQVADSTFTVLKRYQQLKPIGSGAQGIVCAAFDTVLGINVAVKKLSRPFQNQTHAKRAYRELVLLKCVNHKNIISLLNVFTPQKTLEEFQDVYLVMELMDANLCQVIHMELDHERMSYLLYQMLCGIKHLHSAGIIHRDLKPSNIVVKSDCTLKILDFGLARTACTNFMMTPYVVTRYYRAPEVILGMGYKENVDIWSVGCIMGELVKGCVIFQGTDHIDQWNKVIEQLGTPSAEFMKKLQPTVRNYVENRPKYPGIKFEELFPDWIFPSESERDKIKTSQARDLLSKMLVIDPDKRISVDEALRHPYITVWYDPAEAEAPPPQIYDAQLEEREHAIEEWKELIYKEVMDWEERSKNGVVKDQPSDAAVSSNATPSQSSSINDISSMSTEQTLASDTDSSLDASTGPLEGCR
Experiment [3] concerns the target T1, Mitogen-activated protein kinase 8. Kind of experiment: Inhibition of JNK1 (unknown origin) by kinase profiling assay.
Experiment [4] has as its target Cyclin-dependent kinase-like 3 (Homo sapiens, UniProt Q8IVW4). Kind of experiment: Inhibition of CDKL3 (unknown origin) by kinase profiling assay.
The target of experiment [5] is T2, Serine/threonine-protein kinase D3 (Homo sapiens, UniProt O94806).
T2 sequence (O94806 whole entry): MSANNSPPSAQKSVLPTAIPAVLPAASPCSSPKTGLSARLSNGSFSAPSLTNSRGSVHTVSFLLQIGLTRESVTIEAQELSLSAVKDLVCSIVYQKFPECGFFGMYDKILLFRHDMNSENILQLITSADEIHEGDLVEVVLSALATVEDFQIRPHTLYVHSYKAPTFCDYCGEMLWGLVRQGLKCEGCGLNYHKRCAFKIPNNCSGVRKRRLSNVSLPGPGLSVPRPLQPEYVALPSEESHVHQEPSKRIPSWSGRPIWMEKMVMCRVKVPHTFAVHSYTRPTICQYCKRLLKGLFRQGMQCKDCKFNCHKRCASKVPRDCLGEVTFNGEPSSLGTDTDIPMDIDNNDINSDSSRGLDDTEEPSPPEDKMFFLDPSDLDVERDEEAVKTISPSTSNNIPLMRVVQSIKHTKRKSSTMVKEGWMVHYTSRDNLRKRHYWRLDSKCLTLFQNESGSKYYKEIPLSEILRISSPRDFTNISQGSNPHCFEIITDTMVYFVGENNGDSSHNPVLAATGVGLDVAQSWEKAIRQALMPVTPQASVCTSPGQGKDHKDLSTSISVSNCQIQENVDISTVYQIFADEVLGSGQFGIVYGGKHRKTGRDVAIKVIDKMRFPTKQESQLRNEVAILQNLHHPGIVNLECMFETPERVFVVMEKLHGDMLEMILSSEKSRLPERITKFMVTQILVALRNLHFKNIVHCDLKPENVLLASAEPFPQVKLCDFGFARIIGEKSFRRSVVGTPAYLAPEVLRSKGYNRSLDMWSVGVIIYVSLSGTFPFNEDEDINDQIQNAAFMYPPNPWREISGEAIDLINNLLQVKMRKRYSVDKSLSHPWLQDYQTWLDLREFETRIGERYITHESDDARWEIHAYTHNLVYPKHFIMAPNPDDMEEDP
Nature of the experiment: Inhibition of PKD3 (unknown origin) by kinase profiling assay.

Experiment [6] addresses Vascular endothelial growth factor receptor 3 (Homo sapiens, UniProt P35916). Kind of experiment: Inhibition of FLT4 (unknown origin) by kinase profiling assay.
The target in experiment [7] is TRAF2 and NCK-interacting protein kinase (Homo sapiens, UniProt Q9UKE5). Kind of experiment: Inhibition of TNIK (unknown origin) by kinase profiling assay.
Sequence of TRAF2 and NCK-interacting protein kinase (Q9UKE5 whole entry): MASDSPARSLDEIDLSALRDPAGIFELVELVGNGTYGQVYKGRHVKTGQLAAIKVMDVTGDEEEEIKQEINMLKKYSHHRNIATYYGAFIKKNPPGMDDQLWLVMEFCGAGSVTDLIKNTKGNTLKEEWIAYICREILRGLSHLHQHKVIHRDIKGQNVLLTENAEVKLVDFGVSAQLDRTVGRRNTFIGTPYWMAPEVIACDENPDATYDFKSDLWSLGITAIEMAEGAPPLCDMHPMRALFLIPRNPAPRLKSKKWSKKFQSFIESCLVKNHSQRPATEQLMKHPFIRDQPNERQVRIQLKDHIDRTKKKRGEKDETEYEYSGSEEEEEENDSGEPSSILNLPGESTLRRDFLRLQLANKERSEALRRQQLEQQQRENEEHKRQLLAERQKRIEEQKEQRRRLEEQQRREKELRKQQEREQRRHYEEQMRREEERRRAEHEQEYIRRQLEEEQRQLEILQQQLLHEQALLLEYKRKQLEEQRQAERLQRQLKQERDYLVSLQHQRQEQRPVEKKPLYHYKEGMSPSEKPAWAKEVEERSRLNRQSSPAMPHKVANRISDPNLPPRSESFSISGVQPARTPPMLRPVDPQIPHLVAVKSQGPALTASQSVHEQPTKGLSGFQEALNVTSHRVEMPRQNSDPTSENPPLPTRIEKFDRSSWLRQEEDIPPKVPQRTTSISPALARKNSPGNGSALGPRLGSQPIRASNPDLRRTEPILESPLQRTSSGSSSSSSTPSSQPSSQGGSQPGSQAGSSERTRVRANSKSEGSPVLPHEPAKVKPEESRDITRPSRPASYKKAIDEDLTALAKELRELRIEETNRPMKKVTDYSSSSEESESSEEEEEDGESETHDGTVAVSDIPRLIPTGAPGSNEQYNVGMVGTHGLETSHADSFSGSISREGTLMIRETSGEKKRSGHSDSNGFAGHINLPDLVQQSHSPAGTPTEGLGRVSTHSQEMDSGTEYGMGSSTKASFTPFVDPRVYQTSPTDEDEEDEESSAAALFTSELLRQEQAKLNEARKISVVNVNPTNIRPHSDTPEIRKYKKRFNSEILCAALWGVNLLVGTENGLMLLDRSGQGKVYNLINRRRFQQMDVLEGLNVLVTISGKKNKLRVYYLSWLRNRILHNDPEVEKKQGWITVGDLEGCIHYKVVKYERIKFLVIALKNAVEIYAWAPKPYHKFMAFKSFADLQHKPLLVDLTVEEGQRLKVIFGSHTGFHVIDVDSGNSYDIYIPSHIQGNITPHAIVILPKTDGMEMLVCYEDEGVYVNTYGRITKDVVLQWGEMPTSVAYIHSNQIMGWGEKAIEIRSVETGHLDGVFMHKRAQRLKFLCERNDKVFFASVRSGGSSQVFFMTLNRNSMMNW
The target in experiment [8] is T3, Dual specificity mitogen-activated protein kinase kinase 4 (Homo sapiens, UniProt P45985).
T3 sequence (P45985 whole entry): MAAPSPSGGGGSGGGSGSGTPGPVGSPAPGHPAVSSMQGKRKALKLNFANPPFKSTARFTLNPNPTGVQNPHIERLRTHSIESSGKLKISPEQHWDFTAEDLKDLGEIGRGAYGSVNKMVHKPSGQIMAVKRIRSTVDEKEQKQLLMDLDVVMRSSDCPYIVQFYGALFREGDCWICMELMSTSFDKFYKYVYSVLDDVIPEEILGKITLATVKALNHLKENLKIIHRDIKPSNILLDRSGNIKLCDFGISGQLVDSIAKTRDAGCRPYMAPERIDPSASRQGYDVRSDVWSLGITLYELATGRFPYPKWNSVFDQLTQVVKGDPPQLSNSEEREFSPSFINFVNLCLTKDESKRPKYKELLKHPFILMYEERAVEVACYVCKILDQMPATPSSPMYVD
Nature of the experiment: Inhibition of MKK4 (unknown origin) by kinase profiling assay.

Experiment [9] addresses T4, Dual specificity mitogen-activated protein kinase kinase 7 (Homo sapiens, UniProt O14733).
T4 sequence (O14733 whole entry): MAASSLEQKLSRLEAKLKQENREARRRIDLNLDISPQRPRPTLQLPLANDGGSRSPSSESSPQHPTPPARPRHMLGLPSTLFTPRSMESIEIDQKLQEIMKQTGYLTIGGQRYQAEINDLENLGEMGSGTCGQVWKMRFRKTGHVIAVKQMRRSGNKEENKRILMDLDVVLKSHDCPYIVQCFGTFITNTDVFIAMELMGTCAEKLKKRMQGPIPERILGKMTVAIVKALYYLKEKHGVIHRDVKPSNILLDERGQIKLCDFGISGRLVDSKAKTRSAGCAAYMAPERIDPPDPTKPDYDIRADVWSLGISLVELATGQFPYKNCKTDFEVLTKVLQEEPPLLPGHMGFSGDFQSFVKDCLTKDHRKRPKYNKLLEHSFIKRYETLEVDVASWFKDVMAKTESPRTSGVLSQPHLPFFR
Nature of the experiment: Inhibition of MKK7 (unknown origin) by kinase profiling assay.

Experiment [10] has as its target Voltage-gated inwardly rectifying potassium channel KCNH2 (Homo sapiens, UniProt Q12809).
Experiment [11] concerns the target Mitogen-activated protein kinase 10 (Homo sapiens, UniProt P53779).

Sequence of Mitogen-activated protein kinase 10 (P53779 whole entry): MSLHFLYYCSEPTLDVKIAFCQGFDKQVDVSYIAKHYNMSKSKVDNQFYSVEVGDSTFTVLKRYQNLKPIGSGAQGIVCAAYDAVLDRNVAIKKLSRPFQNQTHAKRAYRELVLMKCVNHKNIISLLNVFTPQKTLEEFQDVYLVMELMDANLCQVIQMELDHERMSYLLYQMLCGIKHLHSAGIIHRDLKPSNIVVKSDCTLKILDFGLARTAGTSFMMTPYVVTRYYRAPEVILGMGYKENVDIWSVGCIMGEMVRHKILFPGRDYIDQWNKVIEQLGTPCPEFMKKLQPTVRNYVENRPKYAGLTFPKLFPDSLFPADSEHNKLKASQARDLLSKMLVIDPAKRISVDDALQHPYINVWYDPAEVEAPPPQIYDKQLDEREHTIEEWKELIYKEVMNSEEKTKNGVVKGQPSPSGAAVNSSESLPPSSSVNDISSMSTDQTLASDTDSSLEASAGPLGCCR
T1 sequence (P45983 whole entry): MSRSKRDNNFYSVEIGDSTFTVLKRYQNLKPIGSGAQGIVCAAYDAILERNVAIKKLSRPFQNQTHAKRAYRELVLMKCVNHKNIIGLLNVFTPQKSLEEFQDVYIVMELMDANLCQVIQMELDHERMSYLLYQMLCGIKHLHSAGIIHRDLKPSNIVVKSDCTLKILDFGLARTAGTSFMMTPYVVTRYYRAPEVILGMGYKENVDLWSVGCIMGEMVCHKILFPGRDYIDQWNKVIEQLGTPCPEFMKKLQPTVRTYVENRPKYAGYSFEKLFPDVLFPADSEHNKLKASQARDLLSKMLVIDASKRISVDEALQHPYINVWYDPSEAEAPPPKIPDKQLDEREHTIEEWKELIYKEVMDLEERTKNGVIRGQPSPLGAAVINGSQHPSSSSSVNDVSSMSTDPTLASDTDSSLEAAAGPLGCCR
Sequence of Cyclin-dependent kinase-like 3 (Q8IVW4 whole entry): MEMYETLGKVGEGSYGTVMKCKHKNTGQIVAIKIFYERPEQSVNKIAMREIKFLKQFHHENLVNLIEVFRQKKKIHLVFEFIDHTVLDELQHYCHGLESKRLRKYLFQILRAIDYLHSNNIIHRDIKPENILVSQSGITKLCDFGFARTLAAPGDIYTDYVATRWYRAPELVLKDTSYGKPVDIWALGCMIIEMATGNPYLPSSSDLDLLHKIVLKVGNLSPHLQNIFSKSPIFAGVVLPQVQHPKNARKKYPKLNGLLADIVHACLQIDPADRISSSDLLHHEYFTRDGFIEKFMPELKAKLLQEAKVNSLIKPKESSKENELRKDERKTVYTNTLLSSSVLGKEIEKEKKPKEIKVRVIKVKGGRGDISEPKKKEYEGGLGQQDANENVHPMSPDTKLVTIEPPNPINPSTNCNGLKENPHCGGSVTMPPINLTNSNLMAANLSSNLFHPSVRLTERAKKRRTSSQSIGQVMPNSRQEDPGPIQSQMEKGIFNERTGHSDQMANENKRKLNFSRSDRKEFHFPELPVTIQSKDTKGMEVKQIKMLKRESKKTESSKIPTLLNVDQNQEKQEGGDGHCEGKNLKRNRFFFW
Sequence of Voltage-gated inwardly rectifying potassium channel KCNH2 (Q12809 whole entry): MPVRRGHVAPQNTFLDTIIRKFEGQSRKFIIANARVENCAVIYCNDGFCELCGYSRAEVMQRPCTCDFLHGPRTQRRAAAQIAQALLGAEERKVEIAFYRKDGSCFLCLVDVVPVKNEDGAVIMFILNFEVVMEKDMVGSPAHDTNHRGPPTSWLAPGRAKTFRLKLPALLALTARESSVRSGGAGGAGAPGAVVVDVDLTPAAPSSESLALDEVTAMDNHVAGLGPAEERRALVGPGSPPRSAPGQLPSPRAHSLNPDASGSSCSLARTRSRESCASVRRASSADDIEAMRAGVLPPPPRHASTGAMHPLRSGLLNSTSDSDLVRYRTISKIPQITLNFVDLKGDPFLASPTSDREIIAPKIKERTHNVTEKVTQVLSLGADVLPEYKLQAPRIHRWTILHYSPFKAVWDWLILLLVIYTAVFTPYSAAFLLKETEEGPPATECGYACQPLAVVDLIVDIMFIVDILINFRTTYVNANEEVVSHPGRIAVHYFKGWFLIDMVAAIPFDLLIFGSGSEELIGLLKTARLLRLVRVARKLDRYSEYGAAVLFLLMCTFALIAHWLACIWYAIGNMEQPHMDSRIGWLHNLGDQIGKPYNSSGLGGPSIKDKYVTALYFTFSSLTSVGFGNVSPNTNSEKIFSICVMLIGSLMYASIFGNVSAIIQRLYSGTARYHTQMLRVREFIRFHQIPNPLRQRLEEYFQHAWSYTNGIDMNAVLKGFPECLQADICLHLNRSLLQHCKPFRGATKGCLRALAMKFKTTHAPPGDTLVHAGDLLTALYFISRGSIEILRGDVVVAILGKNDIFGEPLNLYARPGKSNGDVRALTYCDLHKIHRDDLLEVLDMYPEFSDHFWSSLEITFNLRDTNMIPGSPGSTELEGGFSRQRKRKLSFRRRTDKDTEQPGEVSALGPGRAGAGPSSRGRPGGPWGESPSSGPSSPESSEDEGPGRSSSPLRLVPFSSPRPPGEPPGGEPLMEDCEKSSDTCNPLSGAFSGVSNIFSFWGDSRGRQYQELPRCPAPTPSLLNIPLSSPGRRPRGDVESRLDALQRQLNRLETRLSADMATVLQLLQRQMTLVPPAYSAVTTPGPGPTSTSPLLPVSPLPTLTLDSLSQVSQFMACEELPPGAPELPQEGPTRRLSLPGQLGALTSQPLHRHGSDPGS

As to `O=C1c2ccccc2C2=NNC3=CC=CC1C32` (stereo unspecified), the IC50 in [1] was found to be 0.0423 µM. This lies in the double-digit nanomolar range.

Consider `O=C(c1cccc(CNc2n[nH]c3cccc(Cl)c23)c1)N1CCN(C(=O)c2ccc(Cl)cc2Cl)CC1`, for which the IC50 is 9.27 µM in experiment [2]; greater than 10 µM in experiment [3]; 0.669 µM in experiment [4]; 0.624 µM in experiment [5]; 0.423 µM in [6]; 0.367 µM in experiment [7]. Moreover, the IC50 was greater than 10 µM in experiment [8], greater than 10 µM in [9], greater than 10 µM in experiment [1] and greater than 30 µM in [10].

As for `Cc1cccc(Cl)c1C(=O)N1CCN(C(=O)c2ccc(CNc3n[nH]c4ccccc34)cc2)CC1`, the IC50 in [1] was greater than 10 µM.

As to `O=C(NCCc1ccccc1)c1ccc(CNc2n[nH]c3ccccc23)cc1`, the IC50 in experiment [1] and in [11] was greater than 10 µM in each case.

As for `O=C(c1cccc(CNc2n[nH]c3ccccc23)c1)N1CCN(C(=O)c2ccc(Cl)cc2Cl)CC1`, the half-maximal inhibitory concentration (IC50) in [1] is 7.59 µM; in experiment [11], 4.03 µM.

In the case of `O=C(c1ccc(CNc2n[nH]c3ccccc23)cc1)N1CCN(C(=O)c2c(Cl)cccc2C(F)(F)F)CC1`, the IC50 amounted to 7.66 µM in experiment [1] and 0.253 µM in [11].

Take `O=C(c1cccc(CNc2n[nH]c3ccccc23)c1)N1CCN(C(=O)c2c(F)cccc2Cl)CC1`: the IC50 in experiment [1] is 7.82 µM; in experiment [11], 4.3 µM.

In the case of `COc1ccc(C(=O)N2CCN(C(=O)c3ccc(CNc4n[nH]c5ccccc45)cc3)CC2)c(Cl)c1`, in experiment [1], the IC50 is greater than 10 µM.

Consider `O=C(c1ccc(CNc2n[nH]c3ccccc23)cc1)N1CCN(C(=O)c2cc(Cl)ccc2Cl)CC1`, for which the IC50 in [1] is 7.61 µM; in [11], 0.205 µM.

For `COc1ccc(C(=O)N2CCN(C(=O)c3ccc(CNc4n[nH]c5ccccc45)cc3)CC2)cc1`, the values for the IC50 in [1] and in [11] were 7.7 µM and 0.615 µM, respectively.

For the molecule `O=C(c1cccc(CNc2n[nH]c3cccc(F)c23)c1)N1CCN(C(=O)c2ccc(Cl)cc2Cl)CC1`, the IC50 was 8 µM in [1] and 0.189 µM in experiment [11].

`O=C(NN1CCCCC1)c1ccc(CNc2n[nH]c3ccccc23)cc1`: in experiment [1], the IC50 was determined as 9.06 µM.

Turning to `Cc1ccc(Cl)c(C(=O)N2CCN(C(=O)c3ccc(CNc4n[nH]c5ccccc45)cc3)CC2)c1`, the IC50 in experiment [1] is greater than 10 µM; in [11], 0.588 µM.

As for `O=C(Nc1cc(C(F)(F)F)cc(C(F)(F)F)c1)N1CCN(C(=O)c2ccc(CNc3n[nH]c4ccccc34)cc2)CC1`, the IC50 was greater than 10 µM in experiment [1] and 8.03 µM in experiment [11].

For the molecule `O=C(c1cccc(CNc2n[nH]c3cc(Cl)ccc23)c1)N1CCN(C(=O)c2ccc(Cl)cc2Cl)CC1`, the IC50 in experiment [11] was 0.239 µM.

In the case of `O=C(c1ccc(Cl)cc1)N1CCN(C(=O)c2ccc(CNc3n[nH]c4ccccc34)cc2)CC1`, the IC50 in [1] worked out at 8.82 µM; in experiment [11], 0.305 µM.

Consider `Cc1cc(NC(=O)c2ccc(CNc3n[nH]c4ccccc34)cc2)ccc1Cl`, for which the IC50 in experiment [1] and in experiment [11] was greater than 10 µM each time.

With `O=C(c1cccc(CNc2n[nH]c3c(Cl)cc([N+](=O)[O-])cc23)c1)N1CCN(C(=O)c2ccc(Cl)cc2Cl)CC1`, the IC50 in experiment [1] and in [11] was greater than 10 µM in each case.

Consider `Cn1nc(NCc2cccc(C(=O)N3CCN(C(=O)c4ccc(Cl)cc4Cl)CC3)c2)c2ccccc21`, for which the IC50 in experiment [1] and in [11] was greater than 10 µM throughout.

Take `O=C(c1ccc(CNc2n[nH]c3ccccc23)cc1)N1CCN(C(=O)c2cccc(C(F)(F)F)c2)CC1`: the IC50 in experiment [1] stood at 7.8 µM; in experiment [11], 0.927 µM.

In experiment [11], `O=C(c1ccc(CNc2n[nH]c3ccccc23)cc1)N1CCN(C(=O)c2c(Cl)cccc2Cl)CC1` yielded an IC50 of 0.279 µM.

For the molecule `O=C(Nc1ccccc1)c1ccc(CNc2n[nH]c3ccccc23)cc1`, the IC50 in [1] and in experiment [11] was greater than 10 µM throughout.

For the molecule `COc1ccc(NC(=O)c2ccc(CNc3n[nH]c4ccccc34)cc2)cc1`, the IC50 in experiment [1] and in experiment [11] was greater than 10 µM each time.

Take `O=C(c1ccc(CNc2n[nH]c3ccccc23)cc1)N1CCN(C(=O)c2ccc(Br)cc2Br)CC1`: the IC50 came to 8.85 µM in [1] and 0.248 µM in experiment [11].

With `O=C(c1ccc(CNc2n[nH]c3ccccc23)cc1)N1CCN(C(=O)c2ccc(OC(F)(F)F)cc2)CC1`, the IC50 in [1] is 7.68 µM; in experiment [11], 0.325 µM.

Consider `Cc1cccc2c(NCc3cccc(C(=O)N4CCN(C(=O)c5ccc(Cl)cc5Cl)CC4)c3)n[nH]c12`, for which the IC50 in [1] and in [11] was greater than 10 µM throughout.

`O=C(c1ccc(CNc2n[nH]c3ccccc23)cc1)N1CCCC1`: the IC50 amounted to 8.07 µM in [1] and 7.51 µM in experiment [11].

For the molecule `O=C(c1ccc(CNc2n[nH]c3ccccc23)cc1)N1CCN(C(=O)c2cc(C(F)(F)F)ccc2Cl)CC1`, the figures for the IC50 in experiment [1] and in experiment [11] were 9.87 µM and 0.282 µM, respectively.

`O=C(Nc1ccc(Cl)cc1)c1ccc(CNc2n[nH]c3ccccc23)cc1`: the 50% inhibitory concentration (IC50) in experiment [1] and in experiment [11] was greater than 10 µM throughout.

On to `O=C(c1ccc(CNc2n[nH]c3ccccc23)cc1)N1CCN(C(=O)c2ccccc2I)CC1`, for which the results for the IC50 in experiment [1] and in experiment [11] were 7.69 µM and 0.399 µM, respectively.

Take `O=C(c1ccc(CNc2n[nH]c3ccccc23)cc1)N1CCN(C(=O)c2ccc(F)cc2Cl)CC1`: the IC50 worked out at 9.07 µM in experiment [1] and 0.647 µM in experiment [11].

With `O=C(c1cccc(CNc2n[nH]c3ccccc23)c1)N1CCN(C(=O)c2cc(C(F)(F)F)ccc2F)CC1`, half-maximal inhibition in [11] (IC50) was put at 4.46 µM.

Consider `O=C(Nc1ccccc1Cl)N1CCN(C(=O)c2ccc(CNc3n[nH]c4ccccc34)cc2)CC1`, for which the IC50 stood at 7.79 µM in [1] and 0.619 µM in [11].

With `O=C(c1ccc(CNc2n[nH]c3ccccc23)cc1)N1CCN(C(=O)c2ccccc2OC(F)(F)F)CC1`, the IC50 in [1] is 8.28 µM; in [11] it was 0.394 µM.

As for `O=C(c1ccc(CNc2n[nH]c3ccccc23)cc1)N1CCN(C(=O)c2cccc(F)c2Cl)CC1`, the IC50 is 8.91 µM in experiment [1] and 0.384 µM in experiment [11].
